# Test results: patent US10118954B2, “Apelin analogues” (University of Ulster, priority 2014, dated 2018)
# Where two headings read alike, the source gives them in different places.
# Tests used:
# [1] = Degradation of apelin peptides by plasma from fasted normal NIH Swiss mice (rp-HPLC, MALDI-TOF MS); type: in vitro ADME; details: for half-life at 263 µg/mL / remaining at 4 h, 263 µg/mL: NIH Swiss, pH 7.4
# Method in brief: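 Apelin peptides were incubated with plasma from fasted normal NIH Swiss mice for 4 h, and the reaction was stopped with TFA. Products were separated by C-8 rp-HPLC with detection at 214 nm. Peak fractions were identified by MALDI-TOF MS, giving fragment molecular weights and retention times.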
# [2] = tested on: NIH Swiss mice fed a high-fat diet for 150 days; experiment: Acute and delayed i.p. glucose tolerance test, blood glucose and plasma insulin; type: in vivo
# Method in brief: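 Diet-induced obese-diabetic mice (high-fat diet 150 days, 18 h fasted) received i.p. glucose (18 mmol/kg) alone or with apelin analogues (25 nmol/kg), or analogues given 2, 8 or 16 h beforehand. Tail blood glucose and plasma insulin sampled at 0, 15, 30, 60, 105 min; n=8, mean±SEM.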
# [3] = tested on: high fat fed NIH Swiss mice; experiment: 28 day long-term study, twice daily i.p. administration; type: in vivo
# Text: NIH Swiss mice (Harlan UK Ltd., Blackthorne, UK) were derived from a nucleus colony obtained from the National Institute of Health, Bethesda, Md., USA. One group of mice were maintained on a standard rodent diet (10% fat, 30% protein, 60% carbohydrate; percent of total energy 12.99 kJ/g, Trouw Nutrition, Cheshire, UK) and used as a model of normal glycaemia. Other NIH Swiss mice were maintained on a high fat diet (45% fat, 20% protein, 35% carbohydrate; percent of total energy 26.15 […], UK) from 8 weeks of age for 150 days to produce a model of diet induced obesity-diabetes. […] Drinking water and diet were freely available. All animal studies were performed in accordance with the UK Animals (Scientific Procedures) Act 1986. […] Following the run-in period, normal control (n=8) and high-fat fed mice (n=8) received twice daily (09:00 and 17:00 h) i.p. administration of saline vehicle (0.9% NaCl (w/v)) for 28 days. […] Blood samples for glucose and plasma insulin measurement were collected at intervals throughout the study from the cut tail vein of conscious mice. […] Glucose was measured using an Ascensia Contour meter and blood was collected and processed for plasma insulin analysis by radioimmunoassay. Body weight and fat mass was also assessed using the PIXImus DEXA scanner whilst energy expenditure, intake, food intake and feeding bouts were assessed using the CLAMS metabolic chamber. HbA1c was analysed post 28 days using Bayer A1C Now^+ Multi Test meter. Lipid profile test was obtained by using the iLab analyser. Cholesterol, triglyceride and HDL-cholesterol levels were measured, in plasma (3 μl), using the iLab analyser. LDL-cholesterol levels were obtained using the Friedewald equation=total cholesterol-HDL-(triglycerides/3).
# male NIH Swiss mice = experiment: Acute effects of apelin analogues on voluntary food intake; type: in vivo
# Method: Saline and peptide analogues were administered by intraperitoneal injection and cumulative food intake was monitored at 30, 60, 90 and 120 min after feeding.
# Mice were habituated to a daily feeding regime of 3 h/day by progressively reducing the daily feeding period over 3 weeks. This was performed to ensure mice consumed entire daily food intake within 3 h, thereby allowing “peptide” effects to be measured over the known eating period of mice. On days 1 to 7, mice were supplied with food from 10:00 h to 20:00 h, on days 8 to 14, food was presented from 10:00 h to 19:00 h and on days 15 to 21, food was restricted to the 3 h interval from 10:00 h to 13:00 h. This regime was continued throughout the experimental period.
# Mice that were habituated to a 3 h daily feeding regime were administered with an i.p. injection of saline (0.9% w/v NaCl) or apelin peptide (1-100 nmol/kg bw) at 10:00 h (n=8). Immediately following injection, food was initially weighed and then presented to the mice and subsequently weighed at 30 min intervals up to 180 min.
# [4] = acute, alone and in combination, each 25 nmol/kg i.p. with glucose, Table 5
# [5] = acute, peptide 25 nmol/kg i.p. with glucose 18 mmol/kg, Table 4
# [6] = following a 2 h delay, 25 nmol/kg
# [7] = following a 8 h delay, 25 nmol/kg
# [8] = plasma incubation 4 h, fragment identified by MALDI-TOF MS
structure (smiles),measurement,setting,value
CSCC[C@H](NC(=O)[C@@H]1CCCN1C(=O)CNC(=O)[C@H](CCCCN)NC(=O)[C@H](Cc1c[nH]cn1)NC(=O)[C@H](CO)NC(=O)[C@H](CC(C)C)NC(=O)[C@H](CCCNC(=N)N)NC(=O)[C@@H]1CCCN1C(=O)[C@H](CCCNC(=N)N)NC(=O)[C@@H](N)CCC(N)=O)C(=O)N1CCC[C@H]1C(=O)N[C@@H](Cc1ccccc1)C(N)=O [Apelin-13-amide],"Degradation fragment, Peak 1",[1],Apelin-13-amide (1-12)
same,Rank order of stability,[1],5
same,half-life at 263 µg/mL,"[1]; mouse, plasma",11.4 h
same,"remaining at 4 h, 263 µg/mL","[1]; mouse, plasma",80.4 ± 1.9%
same,Rank order on basis of anti-hyperglycaemic efficacy,"[2]; acute, Table 4",2
same,"Glucose lowering, where glucose alone = 100%",[2]; [4],65% (**)
same,"Insulin secretion, where glucose alone = 100%",[2]; [4],153% (***)
same,Blood glucose as percent of glucose-alone control (lower = stronger glucose lowering),[2]; [5],65% (**)
same,"Insulin secretion, where glucose alone = 100%",[2]; [5],153% (***)
same,Rank order on basis of anti-hyperglycaemic efficacy,[2]; following a 2 h delay,2
same,Blood glucose as percent of glucose-alone control (lower = stronger glucose lowering),[2]; [6],73% (**)
same,"Insulin secretion, where glucose alone = 100%",[2]; [6],142% (**)
same,Rank order on basis of anti-hyperglycaemic efficacy,[2]; following a 8 h delay,3
same,Blood glucose as percent of glucose-alone control (lower = stronger glucose lowering),[2]; [7],88% ^
same,"Insulin secretion, where glucose alone = 100%",[2]; [7],106%
same,Percentage fat mass compared to high-fat fed controls,"[3]; after 28 days, DEXA",failed to reach significance
same,Glucose tolerance and plasma insulin excursion following an i.p. and oral glucose load,[3]; after the 28 day treatment period,significantly improved
same,Day of study at which bodyweight was significantly decreased,"[3]; twice daily 25 nmol/kg bw, 28 days",~20 days
CCCCCCCCCCCCCCCC(=O)N[C@@H](CCC(=O)NCCCC[C@H](NC(=O)[C@H](Cc1c[nH]cn1)NC(=O)[C@H](CO)NC(=O)[C@H](CC(C)C)NC(=O)[C@H](CCCNC(=N)N)NC(=O)[C@@H]1CCCN1C(=O)[C@H](CCCNC(=N)N)NC(=O)[C@@H](N)CCC(N)=O)C(=O)NCC(=O)N1CCC[C@H]1C(=O)N[C@@H](CCSC)C(=O)N1CCC[C@H]1C(=O)N[C@H](C(=O)O)C(C)C)C(=O)O [Lys^8GluPAL(Val^13)apelin-13],"Increase of food intake, maximal, compared to saline treated control","male NIH Swiss mice; 25 nmol/kg i.p., 150 min, FIG. 39",9.2%
"CSCC[C@H](NC(=O)[C@@H]1CCCN1C(=O)CNC(=O)[C@H](CCCCN)NC(=O)[C@H](Cc1cnc[nH]1)NC(=O)[C@H](CO)NC(=O)[C@H](CC(C)C)NC(=O)[C@H](CCCNC(=N)N)NC(=O)[C@@H]1CCCN1C(=O)[C@H](CCCNC(=N)N)NC(=O)[C@@H](N)CCC(N)=O)C(=O)N1CCC[C@H]1C(=O)N[C@@H](Cc1ccccc1)C(=O)O [Apelin-13, reference compound]","remaining at 4 h, 263 µg/mL","[1]; mouse plasma, 37° C., 4 h, mean ± SEM, 2 experiments, read-out: % intact peptide (4 h)",25.4 ± 1.5%
same,half-life at 263 µg/mL,"[1]; mouse plasma, estimated by linear regression of % intact peptide against time, read-out: Half-life (t1/2) (converted)",2.1 h
same,Rank order of stability,"[1]; mouse plasma, 1 = most stable",14
same,"Degradation fragment, Peak 1",[1]; [8],Apelin-13 (1-11)
same,"Degradation fragment, Peak 2",[1]; [8],Apelin-13 (1-12)
same,Rank order on basis of anti-hyperglycaemic efficacy,"[2]; acute, Table 4",6
same,Blood glucose as percent of glucose-alone control (lower = stronger glucose lowering),[2]; [5],92% ^
same,"Insulin secretion, where glucose alone = 100%",[2]; [5],111% ^
same,Reduction of food intake,"male NIH Swiss mice; 100 nmol/kg i.p., at 90 min, FIG. 37",16.7%
same,Persistence of the food intake reduction,"male NIH Swiss mice; 100 nmol/kg i.p., over 3 h, FIG. 37",not sustainable over 3 h
